In one assay the test system is dermal Arthus reaction. In words: Reverse passive dermal Arthus reaction in the rat. The assay is classed as in vivo. As to conditions: intravenous, oral and topical.
The subject of assay [1] is neutropenia caused by i.v. LPS. As to the kind of experiment: LPS-induced neutropenia (endotoxaemia model). The assay is classed as in vivo, rat. The following applies: topical in 50% DMSO/50% H2O, 60 min before LPS 1 mg/kg i.v. How it is done:
The in vivo pharmacological properties of cyclic antagonists were examined following topical dermal administration. A model of endotoxaemia was used, in which 1 mg/kg Escherichia coli […] (LPS; serotype 55:B5, Sigma, USA, stored at 100 mg ml^−1 in dH2O, 4° C.), was injected i.v into a rat, resulting in acute changes in circulating PMN levels and blood pressure. These parameters were measured in the presence and absence of C5aR antagonists (1 mg/kg i.v or 50 mg/kg/rat topically). […] Female Wistar rats weighing between 200-250 g were used for in vivo testing of all C5a receptor antagonists. Rats were anaesthetized using the procedure described above, and transferred on to a heating pad to ensure that body temperature was maintained throughout the experiment. A catheter was inserted in the femoral vein, secured with a suture and flushed with 100 μL of heparinised saline. […] All agents infused i.v were injected over a 2 min period, and were followed with a subsequent injection of 100 μL of saline to ensure complete delivery of the drug. Whole blood samples (0.1 mL) were collected from the tail vein at the time of drug and LPS or C5a administration. Samples were collected at −15, 0, 5, 10, 15, 30, 60, 90, 120 and 150 min relative to the injection of LPS (zero time), and placed in tubes containing heparin (500 Units/mL). To isolate PMNs, 100 μL of blood was layered on to 200 μL of Histopaque 1077 (Sigma U.S.A.) solution and centrifuged at 400×g for 30 min min at room temperature (25° C.). The supernatant layer of platelet-rich plasma, the monocyte and lymphocyte interface and the separation layer of Histopaque were removed and discarded, leaving the PMN and red blood-cell rich layer. […] The number of PMNs was counted on a haemocytometer. The number of cells at each time point was calculated as a percentage of the total number of cells at time zero, prior to complement challenge or LPS. […] Circulating PMN levels were monitored for 150 min following LPS injection, and the percentage change in PMN levels from zero time, when LPS was injected, was calculated.

A further assay concerns gut ischemia-reperfusion. In words: Intestinal ischemia-reperfusion injury in rats.

Method for gut ischemia-reperfusion: Female Wistar rats (250-300 g, n=132) were fasted and given only water for 12 h prior to all experiments. Animals were anaesthetised by the intraperitoneal injection of 80 mg kg^−1 ketamine and 10 mg kg^−1 xylazine and throughout the procedure rats were placed on a heating pad to maintain normal body temperature. […] A non-traumatic occlusive device for the artery was fashioned from a silk suture looped though a length of polyethylene tubing. The SMA was occluded by applying traction to the ends of the loop. […] (1) in 5% ethanol or sterile, pyrogen-free saline in 0-2 ml volume. Infusions were made over a 2 min period. […] (1) (0.3, 1, 10 mg kg^−1) was achieved by gavage (0.2 ml saline in 25% ethanol) 60 min prior to SMA occlusion. Intestinal ischemia was induced by clamping the SMA for 30 min, after which the occlusive suture was removed, then reperfusion was monitored for another 120 min. Sham-operated rats were treated in an identical fashion, with the omission of vascular occlusion, and were infused with 0.2 ml of sterile, pyrogen-free saline or gavaged with 0.2 ml of saline in 25% ethanol. Blood samples (50 μL) were collected into heparinised Eppendorf tubes at regular intervals over the 180 min duration of the experiments for the estimation of PMN numbers. In a different series of identical experiments, whole blood was collected at regular intervals over the 180 min and allowed to clot on ice, and serum or plasma samples collected and stored at −20° C. for later measurement of tumour necrosis factor-α (TNF-α), haptoglobin (Hp) and aspartate aminotransferase (AST) concentrations. At the end of the 120 min reperfusion period, the animals were euthanased with an overdose of pentobarbital A section of the occluded ileum was removed, the lumen rinsed with saline, and the intestine was blotted dry, then weighed. Specimens were dried in an oven for 24 hours at 80° C. to obtain the tissue dry weight. Intestinal oedema was determined by assessing the wet and dry tissue weight ratio. Additionally, segments of both ischaemic and normal intestine were harvested and rinsed with saline and immediately fixed in 10% buffered formaldehyde-saline for histological studies.
Blood (50 μL) for PMN counts was placed into heparinised tubes and then layered over an equal volume of Histopaque 1083 (Sigma, U.S.A.), PMNs were isolated and cell number counted on a haemocytometer. Concentrations of PMN's values are presented as mean percentage±SEM of the values obtained immediately prior to SMA occlusion.
Serum TNF-α concentrations were measured using an enzyme-linked immunosorbent assay, (OptEIA, Pharmingen, USA), according to the manufacturers instructions. Concentrations of TNF-α in serum samples were determined by linear regression analysis from the standard curve.
Plasma AST (AST/GOT; Sigma, USA) concentrations were measured according to manufacturers instructions within 48 h of collecting plasma. Plasma AST concentrations were derived from calibration curve. Results are expressed in Sigma-Franke (SF) units/ml.
Specimens were fixed in 10% formaldehyde-saline, embedded in paraffin wax, sectioned serially, and stained with haematoxylin and eosin. Tissues were read and scored by a trained observer in a blinded fashion. The degree of intestinal tissue injury was determined using a previously described graded scale ranging from 0-8 (Chiu et al., 1970).

`CC(=O)N[C@@H](Cc1ccccc1)C(=O)N[C@H]1CCCNC(=O)[C@H](CCCNC(=N)N)NC(=O)[C@H](Cc2c[nH]c3ccccc23)NC(=O)[C@@H](CC2CCCCC2)NC(=O)[C@@H]2CCCN2C1=O` [Compound 1, Ac-Phe-[Orn-Pro-dCha-Trp-Arg]]: the “vascular leakage associated with a dermal Arthus reaction” value in the assay with dermal Arthus reaction (FIG. 1) is listed as “inhibition”. In addition, in the assay with dermal Arthus reaction (FIG. 2), the “rise in circulating TNFα associated with a dermal Arthus reaction” value is recorded as “inhibition”. Also, in assay [1], the “neutropenia response to i.v. LPS” value is listed as “inhibited the neutropenia response”. In addition, the ischemia-reperfusion induced neutropenia result with gut ischemia-reperfusion (1 mg/kg i.v. and 10 mg/kg p.o.) is “significantly inhibited”; in the assay with gut ischemia-reperfusion (1 mg/kg p.o.), “no inhibition”. For the same compound, in the assay on gut ischemia-reperfusion (1 mg/kg i.v. and 1,10 mg/kg), the “gut ischemia-reperfusion induced plasma aspartate aminotransferase” value is given as “significantly reduced”. The “gut ischemia-reperfusion induced tissue damage (histopathology)” value with gut ischemia-reperfusion (1 mg/kg i.v. and 1,10 mg/kg) is reported as “significantly reduced”. In addition, the “increase in serum haptoglobin levels” value in the assay with gut ischemia-reperfusion (1 mg/kg i.v. and 1,10 mg/kg p.o.) is “significantly inhibited”. Besides, in the assay on gut ischemia-reperfusion (1 mg/kg i.v. and 1-10 mg/kg p.o.), the “change in serum TNF-α levels” value is “completely inhibited”.

These data come from US7579432B2, “Cyclic peptides as G-protein-coupled receptor antagonists” (Promics Pty Limited, priority 2001, dated 2009).
